What was measured:
[1] = Cl-/NO3- exchange in LUVs with preincorporated anionophore (lucigenin method); type: biochemical; details: transporter preincorporated in LUVs (70% POPC + 30% cholesterol), 25 mM NaCl gradient, 225 mM NaNO3; new compound or new data
Procedure: The four new anionophores were tested for affinity to Cl^– (in CHCl3 and DMSO, with tetra-alkylammonium counter-ions), and for anion transport (Cl^–/NO3^– exchange) when preloaded into 200 nm large unilamellar vesicles (LUVs). The latter assay was performed using the well-established “lucigenin method”[30] in which Cl^– influx into vesicles is followed through quenching of fluorescence from the halide-sensitive fluorophore lucigenin. The results are listed in Table 1, accompanied by corresponding values for the previously-reported compounds where available. […] In this test, anion transport by anionophores delivered externally to LUVs is compared with their action when preloaded into LUV membranes.[24],[29],[32]
3. Transport studies in vesicles
Transport measurements in vesicles with preincorporated anionophores.
1-Palmitoyl-2-oleoyl-sn-glycero-3-phosphocholine (POPC) was obtained from Avanti® Polar Lipids, Inc. An extrusion apparatus and 200 nm polycarbonate membranes were obtained from GC Technology Ltd. All lipid and receptor solutions were prepared using chloroform that had been deacidified by passage through a flash chromatography column containing basic alumina, and all aqueous solutions were prepared using deionised water that had been passed through a Millipore filtration system.
POPC and cholesterol solutions (~10 mM) in deacidified chloroform were combined with a solution of transporter in methanol or deacidified chloroform in a 5 mL round bottomed flask.
Volumes of the aliquots were calculated from the concentrations of the lipid solution to obtain a POPC to cholesterol ratio of 7:3 (for instance by combining 4.20 µmol POPC and 1.80 µmol cholesterol). The ratio of anionophore to lipid (POPC + cholesterol) was either 1:2500 or 1:25000, as specified in the experiments. The solvents from the lipid/receptor mixture were evaporated under a stream of N2 and the lipid film was dried under high vacuum for 1 h. The residue was hydrated with 500 µL of an aqueous solution of 10,10'-dimethyl-9,9'-biacridinium nitrate (lucigenin, 0.8 mM) and NaNO3 (225 mM), sonicated for 30 s and stirred for 1 h to give heterogeneous vesicles. Multilamellar vesicles were disrupted by 10 freeze-thaw cycles and then the solution was diluted to 1 mL (by adding 0.5 mL of 225 mM NaNO3) and carefully extruded (29 times) through a polycarbonate membrane (200 nm pore size) to give a uniform distribution of LUVs with an average diameter of ~200 nm.2 The external lucigenin was removed by passing the solution though a size exclusion column (containing ~2 g Sephadex 50G, eluted with 225 mM NaNO3). The collected vesicles were further diluted with NaNO3 solution (225 mM) to obtain a vesicle solution with 0.4 mM lipid concentration. 3.00 mL of this vesicle solution was placed in a quartz cuvette with a small stir bar and the fluorescence intensity (excitation at 450 nm, emission at 535 nm) was measured over time at 25 °C, using a PerkinElmer LS45 fluorescence spectrometer. 75 µL of aqueous NaCl (1.0 M in 225 mM NaNO3, to give an overall external chloride concentration of 25 mM) was added ~30 seconds after the start of the experiment and the fluorescence intensity was measured for another 14 […]
Fluorescence data were collected for at least four replicate experiments. The plateau (before addition of chloride) and the vertical drop (the first 1-2.5 seconds after chloride addition, due to quenching of external lucigenin) were removed. Next the data were normalized: all fluorescence values (F) were divided by the fluorescence value before addition of chloride (F0).
Initial rates (I) were obtained from fluorescence -decay curves (0-500 s) by fitting their inverse (F0/F) to a double exponential decay function:
Differentiating this gives F = abe−bt + cde−dt […]
and substituting t = 0 gives the following equation for initial rate: I = ab + cd Specific initial rates [I] were obtained by dividing the initial rates by the anionophore to lipid […]

YFP-FRT cells = assay: IncuCyte ZOOM live-cell viability (DRAQ7) in YFP-FRT cells; type: cell-based
Procedure: For cytotoxicity studies, we used YFP-CFBE and YFP-FRT cells. […]
To evaluate the viability of YFP -FRT cells, we used the IncuCyte ZOOM TM (Essen Bioscience (now Sartorius), Welwyn Garden City, UK) live-cell analysis system. YFP-FRT cells were seeded in 96-well plates at a density of 4000 cells well-1 and allowed to grow for 48 h at 37 °C in a humidified atmosphere of 5% CO2. Then, the YFP-FRT culture media was replaced with fresh culture media containing test anionophores or the vehicle (DMSO 0.5% v v-1) and deep red anthraquinone 7 (DRAQ7; Biostatus, Shepshed, UK) was added following the manufacturer’s instructions before the YFP-FRT cells were transferred to the IncuCyte ZOOMTM. At 2 h intervals over a 24 h period, 4 images of each well on 96-well plates were acquired; the phase contrast images were used to determine the total number of cells per well, while the fluorescence images to identify the number of dead cells with nuclei labelled red by DRAQ7. In each experiment, one data point is the average value from four wells. […]
To investigate further the cytotoxicity of anionophores 12, 15 and 19 we used YFP-FRT cells. As a control we tested compound 11. Using the IncuCyte ZOOMTM (Essen Bioscience) live-cell analysis system and the membrane impermeable far-red fluorescent DNA dye DRAQ7 to label the nuclei of dead cells, we examined the effects of the anionophores 11, 12, 15 and 19 on the viability of YFP -FRT cells over a 24 h period. Consistent with our previous results (Fig.
S23 and ref 10), compound 11 had little effect on cell viability. Only at the highest concentrations tested (30 and 50 µM) and at time points later than 12 h (50 µM) or 14 h (30 µM) did cytotoxicity become apparent ( P < 0.05 vs. DMSO 0.5% v v -1) (Fig. S24). By contrast, the same concentrations of compounds 12, 15 and 19 had cytotoxic effects from 2 h with […]
19 (10 µM) from 8 h onwards (P < 0.05 vs. DMSO 0.5% v v -1) (Fig. S24).

[2] = parameters: method as in ref [16 and 25], [20], [21], [22], [23], [24], [29] (Reference column); details: 1H NMR titrations with Bu4N^+Cl^– in DMSO-d6/H2O (200 : 1) at 298 K; ref [16 and 25], [20], [21], [22], [23], [24], [29]; cited from earlier work
[3] = 10 μM, 24 h period, P < 0.05 vs. DMSO
[4] = 30 μM, 24 h period, P < 0.05 vs. DMSO
[5] = 50 μM, 24 h period, P < 0.05 vs. DMSO

For `COCCOCCOC(=O)[C@]12CC[C@@H](NC(=O)Nc3ccc(C(F)(F)F)cc3)C[C@@H]1C[C@@H](NC(=O)Nc1ccc(C(F)(F)F)cc1)CC2` [Compound 9], the “Specific initial rate [I]” value [1] was 9 s^–1.

With `COCCOCCOC(=O)[C@]12CC[C@@H](NC(=O)Nc3cc(C(F)(F)F)cc(C(F)(F)F)c3)C[C@@H]1C[C@@H](NC(=O)Nc1cc(C(F)(F)F)cc(C(F)(F)F)c1)CC2` [Compound 10] the “Specific initial rate [I]” value [1] was 19 s^–1.

With `CCOC(=O)[C@]12CC[C@@H](NC(=S)Nc3ccc([N+](=O)[O-])cc3)C[C@@H]1C[C@@H](NC(=S)Nc1ccc([N+](=O)[O-])cc1)CC2` [Compound 12] the “time points at which cytotoxicity is apparent” value (shortened to “time points”) (YFP-FRT cells; rat, 24 h, 30 µM) was no less than 2 h, the “time points” value (YFP-FRT cells; rat, 24 h, 50 µM) was no less than 2 h and the “Specific initial rate [I]” value [1] was 310 s^–1.

In the case of `CCCCCCCCOC(=O)[C@]12CC[C@@H](NC(=S)Nc3ccc([N+](=O)[O-])cc3)C[C@@H]1C[C@@H](NC(=S)Nc1ccc([N+](=O)[O-])cc1)CC2` [Compound 13], the “Specific initial rate [I]” value [1] is reported as 370 s^–1.

For `CCOC(=O)[C@]12CC[C@@H](NC(=S)Nc3cc(C(F)(F)F)cc(C(F)(F)F)c3)C[C@@H]1C[C@@H](NC(=S)Nc1cc(C(F)(F)F)cc(C(F)(F)F)c1)CC2` [Compound 15], the “time points” value (YFP-FRT cells; 5 μM, 24 h period, P < 0.05 vs. DMSO) was no less than 2 h, the “toxicity (IncuCyte ZOOM)” value (YFP-FRT cells; 10 μM) was “some cell death” and the “time points” value (YFP-FRT cells; [3]) was no less than 2 h. For the same compound, the “time points” value (YFP-FRT cells; [4]) was no less than 2 h, the “time points” value (YFP-FRT cells; [5]) was no less than 2 h and the “K a to Cl^– in DMSO” value [2] was 2.4 × 10^3 M^–1.

In the case of `FC(F)(F)c1ccc(NC(=S)NCCN(CCNC(=S)Nc2ccc(C(F)(F)F)cc2)CCNC(=S)Nc2ccc(C(F)(F)F)cc2)cc1` [Compound 18], the “K a to Cl^– in DMSO” value [2] is given as 9.6 × 10^2 M^–1 and the “Specific initial rate [I]” value [1] is given as 36 ^b s^–1.

For `FC(F)(F)c1cc(NC(=S)NCCN(CCNC(=S)Nc2cc(C(F)(F)F)cc(C(F)(F)F)c2)CCNC(=S)Nc2cc(C(F)(F)F)cc(C(F)(F)F)c2)cc(C(F)(F)F)c1` [Compound 19], the “toxicity (IncuCyte ZOOM)” value (YFP-FRT cells; 10 μM) was “some cell death”, the “time points” value (YFP-FRT cells; [3]) was no less than 8 h and the “time points” value (YFP-FRT cells; [4]) was no less than 2 h. The “time points” value (YFP-FRT cells; [5]) was no less than 2 h, the “K a to Cl^– in DMSO” value [2] was 4.4 × 10^3 M^–1 and the “Specific initial rate [I]” value [1] was 590 ^b s^–1.

From article PMC6984391, “Anion carriers as potential treatments for cystic fibrosis: transport in cystic fibrosis cells, and additivity to channel-targeting drugs” (Chemical Science, 2019)
